Experimental findings from paper PMC7707092, “Discovery and characterization of ORM‐11372, a novel inhibitor of the sodium‐calcium exchanger with positive inotropic activity” (British Journal of Pharmacology, 2020) are described below.

As usually defined, the inhibition is the change of the read-out against control, counted positive when it falls.

In one series the test system is healthy rats. As to the kind of experiment: In vivo haemodynamics in healthy rats (supplement). Also on record: species or system rat. An excerpt:
In vivo haemodynamics in healthy rats
Experimental Animals and General Study Protocol
Rat was selected to the study as it is the most widely used rodent species in the toxicology studies performed for the small molecules during the drug development. […]
All animal experiments were made according to European Community Guidelines for the use of experimental animals and approved by Finnish National Animal Experiment Board. All studies complied with the ARRIVE guidelines, (NC3Rs Reporting Guidelines Working Group, 2010).
Specific pathogen free animals were housed in half -barrier rooms where special protecting clothing for personnel was required. Animal rooms were cleaned regularly 3 times per week and cages and bottles were […]
changed regular intervals once a week. Temperature was maintained at 22 ± 2°C and humidity at 55 ± 15%.
Light-dark cycle was lights on from 06.00 to 20.00h.
Male Sprague-Dawley rats (Harlan, Netherlands B.V.) were housed in polycarbonate cages (Makrolon® IV with stainless steel wire mesh lids). Maximally 5 rats were housed per cage with aspen chip bedding (Tapvei Ky, Kaavi, Finland). Rats had free access to water (twice filtered, Espoon Vesi) and rodent diet (SDS RM1
(P) SQC pelleted diet, Special Diet Services Ltd, Witham, England). Acclimation period before experiments was at least 5 days. Healthy 10-12 weeks aged weighing 300-400 g rats were randomized to ORM-11372, dobutamine or vehicle group.
At the end of the haemodynamic experiments, rats were terminated with an overdose of pentobarbital.
Anesthesia and ventilation
Rats were anaesthetised with isoflurane (2.25-2.5 %, Baxter) in carbogen (95 % O2 and 5 % CO2) and nitrous oxide (1:1) using a small rodent ventilator (Ugo Basile 7025, ~10 ml/kg, 60 strokes/min). The rats were infused with 0.9 % NaCl in […] at the stabilization and baseline level. Animals were placed on a heating table (+38°C). Tracheas were cannulated.
Systemic blood (SP) and left ventricular pressures (LVP) were measured with pressure transducers (BP:
Isotec, Hugo Sachs Elektronic, Germany; LVP: Mikro-Tip transducer SPR-249, Millar Instruments, USA). The signal was amplified (DC-bridge amplifier type 660, Hugo Sachs Elektronik, Germany), digitised (I/O connector block type SCB-68, National Instruments, USA), recorded and analysed (IHME 1.0.9, Fision Ltd, Finland). Left ventricular inotropic effect (LV +dP/dtmax) and relaxation (LV -dP/dtmin) and heart rate (HR) were analysed from LVP signal.
Blood sampling for the evaluation of plasma levels of the drug
At the end of each infusion, the blood samples (300-500 µl) were taken into chilled EDTA polypropylene tube (CapiJect®, Terumo) and centrifuged (4000 rpm, 10 min, at 4°C). Plasma was immediately frozen in polypropylene tubes and stored at –20°C. ORM-11372 and dobutamine were extracted from plasma samples using a liquid–liquid extraction and analysed using liquid chromatography–tandem mass spectrometry (Agilent Technologies series 1100 liquid chromatographic system and a Sciex LC-MS/MS API 4000 mass spectrometry). The lower limit of quantification for total plasma concentrations were 32.0 and 5.00 ng/ml from total for ORM-11372 and dobutamine, respectively. […]
The effects of dobutamine on blood pressure varies partially due to the use of racemate as active ingredient in the pharmaceutical formulation. (-)-dobutamine is α1-agonist and therefore causes increases in cardiac output and peripheral resistance. (+)-dobutamine acts via β1- and β2-adrenoceptors which leads to increase in heart rate and reduction in blood pressure 16.
Figure S20 Haemodynamics in healthy rats
Effects of ORM-11372 and dobutamine on haemodynamics in isoflurane anesthetized 10-12 weeks aged male Sprague-Dawley rats (Harlan, Netherlands B.V.) weighing 300-400 g. Shown are mean ± SEM and individual effects on the left ventricular contractility (LV+dP/dtmax, panel A), relaxation (LV-dP/dtmax, panel B), heart rate (panel C), and systolic arterial blood pressure (SAP, paned D). […]

The target of series [1] is T1, L‐type Ca^2+ channel current (I CaL) (Homo sapiens, UniProt Q13936).
T1 construct: I CaL was recorded from hiPSC‐derived CMs; host or cells: Cor.4U hiPSC-derived cardiomyocytes
T1 sequence (Q13936 whole entry): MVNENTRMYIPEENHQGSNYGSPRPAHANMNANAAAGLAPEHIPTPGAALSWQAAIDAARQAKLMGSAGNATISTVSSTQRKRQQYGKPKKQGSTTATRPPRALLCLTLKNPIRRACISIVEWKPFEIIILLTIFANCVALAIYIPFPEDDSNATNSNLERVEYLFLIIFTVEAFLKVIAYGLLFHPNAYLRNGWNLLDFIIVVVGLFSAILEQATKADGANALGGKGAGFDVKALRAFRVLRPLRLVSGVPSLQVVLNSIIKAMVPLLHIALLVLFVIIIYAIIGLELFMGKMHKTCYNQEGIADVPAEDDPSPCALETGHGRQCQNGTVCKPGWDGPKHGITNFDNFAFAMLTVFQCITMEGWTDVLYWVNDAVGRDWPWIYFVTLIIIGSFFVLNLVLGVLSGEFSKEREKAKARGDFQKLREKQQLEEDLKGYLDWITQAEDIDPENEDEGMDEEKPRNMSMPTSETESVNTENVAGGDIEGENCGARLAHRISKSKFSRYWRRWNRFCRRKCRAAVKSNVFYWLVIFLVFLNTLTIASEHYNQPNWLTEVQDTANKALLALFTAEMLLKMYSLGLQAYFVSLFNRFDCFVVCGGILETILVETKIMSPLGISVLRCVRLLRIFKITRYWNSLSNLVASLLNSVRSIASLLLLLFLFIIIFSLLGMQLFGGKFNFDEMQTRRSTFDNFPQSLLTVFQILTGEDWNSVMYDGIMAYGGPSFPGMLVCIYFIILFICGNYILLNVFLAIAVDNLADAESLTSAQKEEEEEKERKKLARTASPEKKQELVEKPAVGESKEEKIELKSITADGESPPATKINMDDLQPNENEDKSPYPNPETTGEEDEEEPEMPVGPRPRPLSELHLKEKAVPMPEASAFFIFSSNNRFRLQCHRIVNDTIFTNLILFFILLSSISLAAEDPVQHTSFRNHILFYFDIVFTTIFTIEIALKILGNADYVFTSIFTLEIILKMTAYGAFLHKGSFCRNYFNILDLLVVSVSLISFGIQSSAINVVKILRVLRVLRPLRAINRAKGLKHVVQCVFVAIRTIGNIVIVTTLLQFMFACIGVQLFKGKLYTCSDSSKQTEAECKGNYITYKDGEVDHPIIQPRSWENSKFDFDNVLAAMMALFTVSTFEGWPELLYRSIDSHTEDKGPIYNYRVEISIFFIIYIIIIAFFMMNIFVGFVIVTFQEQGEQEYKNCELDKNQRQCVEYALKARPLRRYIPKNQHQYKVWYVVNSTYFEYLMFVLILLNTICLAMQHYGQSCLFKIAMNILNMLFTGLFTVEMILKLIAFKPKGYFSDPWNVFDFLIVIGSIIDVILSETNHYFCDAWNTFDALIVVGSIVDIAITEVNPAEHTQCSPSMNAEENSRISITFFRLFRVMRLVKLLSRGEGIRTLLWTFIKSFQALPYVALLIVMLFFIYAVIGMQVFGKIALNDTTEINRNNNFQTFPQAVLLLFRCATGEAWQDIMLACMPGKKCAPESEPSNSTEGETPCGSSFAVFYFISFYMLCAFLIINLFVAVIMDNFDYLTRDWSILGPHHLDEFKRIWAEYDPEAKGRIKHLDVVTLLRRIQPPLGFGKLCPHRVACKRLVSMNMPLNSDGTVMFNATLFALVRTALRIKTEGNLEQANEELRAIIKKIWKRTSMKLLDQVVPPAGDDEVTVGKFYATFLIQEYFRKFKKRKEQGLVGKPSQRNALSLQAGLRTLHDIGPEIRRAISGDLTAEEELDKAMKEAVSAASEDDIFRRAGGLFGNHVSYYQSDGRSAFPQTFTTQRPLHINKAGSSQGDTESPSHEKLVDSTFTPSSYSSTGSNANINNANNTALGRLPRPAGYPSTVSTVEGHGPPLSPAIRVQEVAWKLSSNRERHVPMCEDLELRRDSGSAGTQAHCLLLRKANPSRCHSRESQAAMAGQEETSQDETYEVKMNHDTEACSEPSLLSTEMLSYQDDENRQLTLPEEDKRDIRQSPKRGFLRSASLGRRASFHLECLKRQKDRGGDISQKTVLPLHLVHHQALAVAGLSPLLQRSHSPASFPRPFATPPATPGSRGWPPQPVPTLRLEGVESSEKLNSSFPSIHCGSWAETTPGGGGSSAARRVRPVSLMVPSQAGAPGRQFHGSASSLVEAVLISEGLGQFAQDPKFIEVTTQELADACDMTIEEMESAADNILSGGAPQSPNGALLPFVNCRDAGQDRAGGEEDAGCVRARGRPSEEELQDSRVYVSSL
T1 sequence (Q08289 whole entry partner): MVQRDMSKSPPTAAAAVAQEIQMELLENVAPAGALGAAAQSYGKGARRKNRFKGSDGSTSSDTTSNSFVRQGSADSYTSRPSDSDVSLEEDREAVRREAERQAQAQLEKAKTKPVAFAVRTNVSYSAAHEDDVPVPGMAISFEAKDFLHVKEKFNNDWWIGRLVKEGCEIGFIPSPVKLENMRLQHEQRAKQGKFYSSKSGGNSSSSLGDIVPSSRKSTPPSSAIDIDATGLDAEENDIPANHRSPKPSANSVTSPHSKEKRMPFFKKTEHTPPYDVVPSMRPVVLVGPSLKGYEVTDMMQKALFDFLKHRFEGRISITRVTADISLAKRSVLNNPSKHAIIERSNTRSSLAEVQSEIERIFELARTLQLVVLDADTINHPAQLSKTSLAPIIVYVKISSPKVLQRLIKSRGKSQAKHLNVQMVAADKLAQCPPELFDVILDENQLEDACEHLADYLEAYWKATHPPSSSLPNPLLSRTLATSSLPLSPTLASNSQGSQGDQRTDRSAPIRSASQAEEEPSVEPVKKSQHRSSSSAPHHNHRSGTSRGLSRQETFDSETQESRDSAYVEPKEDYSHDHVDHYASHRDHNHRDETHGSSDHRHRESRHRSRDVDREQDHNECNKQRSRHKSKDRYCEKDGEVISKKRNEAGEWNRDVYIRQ
T1 sequence (P54289 25-946 partner limits assumed): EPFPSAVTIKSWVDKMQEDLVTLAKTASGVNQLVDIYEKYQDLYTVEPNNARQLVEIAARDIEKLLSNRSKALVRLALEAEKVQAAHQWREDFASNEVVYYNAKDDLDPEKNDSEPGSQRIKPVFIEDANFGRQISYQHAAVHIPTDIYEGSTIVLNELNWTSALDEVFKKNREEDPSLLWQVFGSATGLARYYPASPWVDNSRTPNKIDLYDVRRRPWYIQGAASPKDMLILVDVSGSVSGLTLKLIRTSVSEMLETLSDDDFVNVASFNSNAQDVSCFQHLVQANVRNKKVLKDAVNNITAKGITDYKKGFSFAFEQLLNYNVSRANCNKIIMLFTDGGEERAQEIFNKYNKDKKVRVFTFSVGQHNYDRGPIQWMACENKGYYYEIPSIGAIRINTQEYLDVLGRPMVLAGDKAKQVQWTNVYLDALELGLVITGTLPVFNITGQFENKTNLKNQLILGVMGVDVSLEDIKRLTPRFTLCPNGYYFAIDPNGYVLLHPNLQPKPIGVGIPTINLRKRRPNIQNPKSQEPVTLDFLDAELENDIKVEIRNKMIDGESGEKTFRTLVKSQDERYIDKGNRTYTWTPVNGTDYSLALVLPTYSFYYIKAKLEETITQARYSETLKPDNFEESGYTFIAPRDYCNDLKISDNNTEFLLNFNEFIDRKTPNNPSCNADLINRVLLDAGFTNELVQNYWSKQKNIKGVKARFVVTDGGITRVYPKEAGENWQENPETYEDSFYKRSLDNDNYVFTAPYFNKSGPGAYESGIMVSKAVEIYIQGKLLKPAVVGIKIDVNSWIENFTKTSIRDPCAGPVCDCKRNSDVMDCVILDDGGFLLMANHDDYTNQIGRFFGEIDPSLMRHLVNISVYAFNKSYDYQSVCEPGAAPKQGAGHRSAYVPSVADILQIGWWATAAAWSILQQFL
T1 sequence (P54289 947-1103 partner limits assumed): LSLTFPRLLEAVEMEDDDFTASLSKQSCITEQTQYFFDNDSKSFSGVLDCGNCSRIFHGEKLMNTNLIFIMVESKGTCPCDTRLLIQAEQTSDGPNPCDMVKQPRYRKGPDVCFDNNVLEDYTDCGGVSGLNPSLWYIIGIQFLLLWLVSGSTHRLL
As to the kind of experiment: L‐type calcium current (I CaL), patch‐clamp in hiPSC‐derived cardiomyocytes. Type of series: cell-based. The conditions noted are these: hiPSC‐CMs, 0 mV, read-out: inhibition of inward I CaL. An excerpt:
Manual patch‐clamp recordings of membrane currents (I NCX, L‐type Ca^2+ channel current [I CaL], human cardiac sodium 1.5 current [I Na], and I hERG) were undertaken using either an Axopatch 200B or Axopatch ID amplifier (Molecular Devices, USA), using the whole‐cell configuration. Cells were at least initially (except when recording I Na) perfused with an extracellular solution consisting of (in mM) 143 NaCl, 4 KCl, 1.8 CaCl2, 1.2 MgCl2, 5 glucose, and 10 HEPES (pH 7.4 with NaOH; osmolarity adjusted to 301 ± 3 mOsm). A slightly modified version was used for the rat ventricular CMs (in mM: 144 NaCl, 0.4 NaH2PO4, 4.0 KCl, 1.8 CaCl2, 0.53 MgSO4, 5.5 glucose, and 5.0 HEPES). Patch pipettes were pulled with a P‐2000 or P‐97 micropipette puller (Sutter Instruments, USA) from borosilicate glass capillaries and had resistances of between 2 and 4 MΩ when filled with any of the pipette solutions (see below). The data were filtered at 1 or 2 kHz and digitized at 10 kHz with acquisition and analysis performed by use of pClamp software (Versions 8–10; Molecular Devices; RRID:SCR_011323).
I CaL was recorded from hiPSC‐derived CMs (at room temperature, n = 2) and rat ventricular myocytes at 1 μM (n = 3; 5 cells) and at 10 μM (n = 4; 6 cells) in an extracellular solution supplemented with 4‐aminopyridine (3 mM) at 37 °C. […]

[2] abbreviates: 4 nM up to 92 nM free plasma concentration.

On to `Nc1cccc(-c2ccc(CNc3ccc(F)cc3)o2)c1` [ORM‐11372], for which, in the series with healthy rats, the “absolute maximum positive inotropic effect” value worked out at 44%, the “free plasma concentration achieving 25% positive inotropic effect” value turned out to be 36 ± 1.4 nM, the “free plasma concentration at absolute maximum positive inotropic effect” value amounted to 351 ± 92 nM and the “free plasma concentration at maximum inotropic effect without any other effects” value is 92 ± 8 nM. Besides, in the series on healthy rats, the “free plasma concentration at the 10±2% (ORM-11372) / 16±3% (dobutamine) inotropic effect” value is 4 ± 0.3 nM. For the same compound, in the series with healthy rats (setting [2]), the left ventricular relaxation entry is on record as “did not affect” and the systolic blood pressure entry is “did not affect”. For the same compound, in the series with healthy rats (36 nM free plasma), the “improvement of relaxation (tendency)” value is 7.5±4.5%. Moreover, in the series with healthy rats (Figure S20), the “effective free concentration range in rat plasma” value is given as 4 to 300 nM. In the series with healthy rats (at 92±8 nM free plasma), the “maximum inotropic effect without any other effects” value is on record as 34±5%. Moreover, in the series with healthy rats (at free plasma concentration 4±0.3 nM (ORM-11372), 16±0.8 nM (dobutamine)), the positive inotropic effect was 10±2%. Moreover, the “decrease in heart rate” value in the series on healthy rats (free plasma concentrations higher than 240 nM) is -7 to -12%. The relaxation entry with healthy rats (high concentration (≥240 nM)) is recorded as “impaired relaxation”. The heart rate entry with healthy rats (up to 240 nM free plasma concentration) is listed as “no effect”. The inhibition at 1 µM in series [1] worked out at 14.1%.
